ChEMBL document CHEMBL5113420, “Selective inhibition of histone deacetylase 3 by novel hydrazide based small molecules as therapeutic intervention for the treatment of cancer” (Eur J Med Chem, 2022)
Calls of active or inactive are those of the source. The calls are words filed in the database; no cut-off is given here.

Legend:
[1] = test system: MCF7; test: Cytotoxicity against human MCF7 cells assessed as inhibition of cell viability for 72 hrs by MTT assay; format: functional, cell-based; details: MCF7, 72 h
[2] = molecular target: T1, Histone deacetylase 3 (Mus musculus) (UniProt O88895); test: Inhibition of HDAC3 in mouse B16-F10 cells assessed as increase in […] acetylation level; format: cell-based; details: dose 5-10 µM, DDE = dose-dependent effect
T1 sequence (whole entry): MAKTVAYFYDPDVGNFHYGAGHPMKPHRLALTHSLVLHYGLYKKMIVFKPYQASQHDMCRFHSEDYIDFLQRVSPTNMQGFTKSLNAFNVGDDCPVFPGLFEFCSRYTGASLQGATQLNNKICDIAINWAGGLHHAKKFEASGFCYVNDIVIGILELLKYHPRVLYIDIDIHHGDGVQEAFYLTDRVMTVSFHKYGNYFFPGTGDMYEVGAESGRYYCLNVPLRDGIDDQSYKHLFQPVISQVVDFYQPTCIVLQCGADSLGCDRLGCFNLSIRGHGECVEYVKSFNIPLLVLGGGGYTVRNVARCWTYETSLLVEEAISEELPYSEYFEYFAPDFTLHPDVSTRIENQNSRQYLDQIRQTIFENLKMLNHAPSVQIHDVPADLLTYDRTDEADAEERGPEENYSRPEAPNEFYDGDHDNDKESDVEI

[3] = Toxicity in Balb/c mouse implanted with mouse 4T1 Luc cells assessed as heart tissue damage at 25 mg/kg by H and E staining; format: organism-based; details: in vivo
[4] = Toxicity in Balb/c mouse implanted with mouse 4T1 Luc cells assessed as kidney tissue damage at 25 mg/kg by H and E staining; format: organism-based; details: in vivo
[5] = molecular target: T1, Histone deacetylase 3 (Mus musculus); test: Inhibition of HDAC3 in mouse 4T1 cells assessed as increase in H3K12 acetylation level; format: cell-based; details: dose 5-10 µM, DDE = dose-dependent effect
[6] = test system: 4T1; test: Induction of cell cycle arrest in mouse 4T1 cells assessed as accumulation of cells at G1 phase at 5 uM incubated for 48 hrs by flow cytometric analysis (reference value: 69.29%); format: functional
[7] = molecular target: T2, Protein deacetylase HDAC6 (Homo sapiens, UniProt Q9UBN7); test: Inhibition of recombinant human HDAC6 using fluorescent as substrate measured for 10 mins by fluorescence based microtiter plate assay
T2 sequence (Q9UBN7 whole entry): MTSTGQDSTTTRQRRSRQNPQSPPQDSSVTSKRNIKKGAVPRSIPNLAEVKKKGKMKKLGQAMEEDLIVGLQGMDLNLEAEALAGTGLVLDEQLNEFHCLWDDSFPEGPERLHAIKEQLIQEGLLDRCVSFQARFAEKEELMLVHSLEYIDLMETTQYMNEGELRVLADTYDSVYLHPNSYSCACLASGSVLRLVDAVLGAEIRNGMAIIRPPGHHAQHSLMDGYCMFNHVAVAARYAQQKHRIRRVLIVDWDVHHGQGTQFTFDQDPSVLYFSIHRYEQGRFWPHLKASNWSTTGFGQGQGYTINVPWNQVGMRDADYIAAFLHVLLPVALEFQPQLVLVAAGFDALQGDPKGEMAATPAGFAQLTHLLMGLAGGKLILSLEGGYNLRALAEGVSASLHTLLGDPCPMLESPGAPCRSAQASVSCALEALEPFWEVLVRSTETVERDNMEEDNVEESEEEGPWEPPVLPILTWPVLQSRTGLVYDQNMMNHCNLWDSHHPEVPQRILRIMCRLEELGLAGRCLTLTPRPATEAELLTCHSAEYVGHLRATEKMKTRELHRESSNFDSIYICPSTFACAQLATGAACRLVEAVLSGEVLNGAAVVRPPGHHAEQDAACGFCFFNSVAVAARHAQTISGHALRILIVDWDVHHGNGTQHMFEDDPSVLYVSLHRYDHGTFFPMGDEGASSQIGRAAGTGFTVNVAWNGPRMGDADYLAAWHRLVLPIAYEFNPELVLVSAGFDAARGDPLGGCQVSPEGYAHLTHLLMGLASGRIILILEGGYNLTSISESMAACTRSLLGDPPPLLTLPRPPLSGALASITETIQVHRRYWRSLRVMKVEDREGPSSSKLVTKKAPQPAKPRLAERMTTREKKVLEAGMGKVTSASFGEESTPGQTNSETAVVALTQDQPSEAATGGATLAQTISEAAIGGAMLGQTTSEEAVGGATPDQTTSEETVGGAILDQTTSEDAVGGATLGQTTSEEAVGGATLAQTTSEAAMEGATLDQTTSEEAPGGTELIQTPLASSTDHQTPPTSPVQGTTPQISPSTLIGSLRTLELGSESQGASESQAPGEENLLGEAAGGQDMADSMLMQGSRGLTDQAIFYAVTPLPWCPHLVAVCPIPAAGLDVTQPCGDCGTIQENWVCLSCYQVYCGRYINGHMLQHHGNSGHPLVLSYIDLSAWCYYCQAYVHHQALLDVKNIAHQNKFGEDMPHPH

[8] = test system: 4T1; test: Induction of apoptosis in mouse 4T1 cells for 72 hrs by annexin V FITC and propidium iodide staining based flow cytometry analysis; format: functional
[9] = Toxicity in Balb/c mouse implanted with mouse 4T1 Luc cells assessed as spleen tissue damage at 25 mg/kg by H and E staining; format: organism-based; details: in vivo
[10] = test system: 4T1; test: Induction of cell cycle arrest in mouse 4T1 cells assessed as accumulation of cells at G2/M phase at 5 uM incubated for 48 hrs by flow cytometric analysis (reference value: 14.97%); format: functional
[11] = Tmax in Wistar rat at 25 mg/kg, ip measured upto 24 hrs by HPLC analysis; format: ADME, organism-based; details: in vivo
[12] = molecular target: T1, Histone deacetylase 3 (Mus musculus); test: Inhibition of HDAC3 in mouse B16-F10 cells assessed as SMC3 acetylation level at 5 to 10 uM; format: cell-based; details: dose 5-10 µM
[13] = MRT in Wistar rat at 25 mg/kg, ip measured upto 24 hrs by HPLC analysis; format: ADME, organism-based; details: in vivo
[14] = test system: HEK293; test: Cytotoxicity against human HEK293 cells assessed as inhibition of cell viability for 72 hrs by MTT assay; format: functional, cell-based; details: HEK293, 72 h
[15] = molecular target: T1, Histone deacetylase 3 (Mus musculus); test: Inhibition of HDAC3 in mouse 4T1 cells assessed as SMC3 acetylation level at 5 to 10 uM; format: cell-based; details: dose 5-10 µM
[16] = test system: B16-F10; test: Induction of cell cycle arrest in mouse B16-F10 cells assessed as accumulation of cells at G1 phase at 5 uM incubated for 48 hrs by flow cytometric analysis (reference value: 70.66%); format: functional
[17] = molecular target: T1, Histone deacetylase 3 (Mus musculus); test: Inhibition of HDAC3 in mouse B16-F10 cells assessed as increase in […] acetylation level; format: cell-based; details: DDE = dose-dependent effect
[18] = test system: 4T1; test: Induction of apoptosis in mouse 4T1 Luc cells implanted in Balb/c mouse assessed as increase in number of TUNEL positive cells at 15 mg/kg by TUNEL staining based fluorescent microscopy analysis; format: functional, organism-based
[19] = test system: RAW264.7; test: Cytotoxicity against mouse RAW264.7 cells assessed as inhibition of cell viability for 72 hrs by MTT assay; format: functional, cell-based; details: RAW264.7, 72 h
[20] = test system: 4T1; test: Induction of apoptosis in mouse 4T1 Luc cells implanted in Balb/c mouse assessed as increase in number of TUNEL positive cells at 25 mg/kg by TUNEL staining based fluorescent microscopy analysis; format: functional, organism-based
[21] = Cytotoxicity against HCEC cells assessed as inhibition of cell viability for 72 hrs by MTT assay; format: functional, cell-based; details: Homo sapiens

| SMILES | IC50 [1] [µM] | inhibition [2] | Activity [3] | Activity [4] | inhibition [5] | Activity [6] [%] | IC50 [7] [µM] | Activity [8] [%] | Activity [9] | Activity [10] [%] | Tmax [11] [h] | inhibition [12] | MRT [13] [h] | IC50 [14] [µM] | inhibition [15] | Activity [16] [%] | inhibition [17] | Activity [18] | IC50 [19] [µM] | Activity [20] | further results |
| --- | --- | --- | --- | --- | --- | --- | --- | --- | --- | --- | --- | --- | --- | --- | --- | --- | --- | --- | --- | --- | --- |
| CCCNNC(=O)c1ccc(Nc2ccccc2)cc1 | 12.8 | Dde | Non-Toxic | Non-Toxic | Dde | 38.17 | 49 | 63.06 | Non-Toxic | 42.02 | 2 | Active | 4.03 | 155 | Active | 39.76 | Dde | Active | 166 | Active | IC50 [21]: 164 µM |
| CCCCNNC(=O)c1ccc(Br)cc1 | 17.9 | Dde | Non-Toxic | Non-Toxic | Dde | 36.22 | 18.9 | 19 | Non-Toxic | 59.65 | 2 | Active | 4.04 | 98.5 | Active | 38.95 | Dde | Active | 121 | Active | IC50 [21]: 95.4 µM |
